Consider 2 molecules from patent publication US7771931B2, “Methods for diagnosing and treating diseases and conditions associated with protein kinase Cλ” (The General Hospital Corporation, priority 2001, dated 2010).

Series [1] relates to PKCλ. Kind of series: Antisense morpholino injection into zebrafish embryos. It counts as in vivo. To be noted: injected into 1-4 cell embryos. How it is done: An antisense morpholino oligonucleotide of sequence 5′-[…]-3′ (SEQ ID NO:6) (GeneTools, LLC) was dissolved at a concentration of […] in 1× Danieau's buffer (5 mM Hepes pH 7.6, 58 mM NaCl, 0.7 mM KCl, 0.6 mM Ca (NO3)2, 0.4 mM MgSO4). One nL of this solution or 1× Danieau's buffer was injected into each 1-4 cell embryo before allowing the embryos to develop at 28.50° C.

Series [2] deals with zebrafish embryos. Briefly: Kidney epithelium of treated zebrafish embryos (apical marker 3G8). It counts as in vivo. The following applies: embryos exposed to concentramide. How it is done: (§1) Digoxigenin-labeled antisense RNA probes were generated by ill vitro transcription for cmlc2 (Yelon et al., supra), vmhc (Yelon et al., supra), and pax2.1 (Krauss et al., Development 113:1193-1206, 1991). In situ hybridization was carried out as described (Oxtoby et al., Nucleic Acids Res. 21:1087-1095, 1993). For whole-mount immunohistochemistry, embryos were fixed in 4% paraformaldehyde in phosphate-buffered saline (S46 and 3G8) or 80% methanol, 20% dimethyl sulfoxide (α-ZO-1), permeablized in acetone for 30 minutes at −20° C. (3G8), blocked with 5% fetal bovine serum, and incubated with the antibodies S46, 3G8 (Vize et al., Dev. Biol. 171:531-540, 1995), or α-ZO-1. An anti-mouse-horseradish peroxidase conjugate was used as secondary antibody for S46 and 3G8, and an Alexa 488-labeled anti-mouse secondary antibody was used for α-ZO-1 staining.
(§2) Fixed embryos were dehydrated, embedded in plastic (JB4, Polysciences, Inc.), and sectioned at 2-7 μm. Retinal sections were stained with hematoxylin-eosin or dapi.

For series [3], the system named is zebrafish embryos. Briefly: Anterior-posterior patterning by in situ hybridization (Pax2.1, cmlc2), 18-somite zebrafish embryos. It counts as in vivo. Here is the method:
as §1

Series [4] relates to zebrafish embryos. Briefly: Retina histology of treated zebrafish embryos (hematoxylin-eosin, dapi). Format: in vivo. The following applies: concentramide-treated embryos.
Description: as §2

For series [5], the system named is zebrafish embryos. Kind of series: Fusion order of heart primordia (cmlc2 expression, 16- and 18-somite stages). It counts as in vivo. How it is done:
as §1

Series [6] deals with zebrafish embryos. Briefly: Small molecule treatment of developing zebrafish embryos, visual inspection of heart patterning.
Description: Visual inspection of the transparent embryos was used to identify small molecules that affect the global patterning of the heart.
The subject of series [7] is C. elegans embryo. Briefly: Early development of the C. elegans embryo (par-2::GFP strain KK871). It counts as in vivo. To be noted: 34 μM concentramide. How it is done:
C. eleganis strain KK871 (par-2::GFP) was maintained at 25° C. For each sample, 10-15 adult worms were soaked in 80 μL M9 medium containing 34 μM concentramide, 0.25% dimethyl sulfoxide for 30-60 minutes. Worms were then cut open with a scalpel, and embryos were mounted on 2% agarose pads with coverslips. Embryos were allowed to develop at 25° C. before being photographed live.

Series [8] relates to yeast. Kind of series: Rate of proliferation of yeast. Format: cell-based.
Series [9] concerns mammalian cells. Briefly: Bromodeoxyuridine incorporation in mammalian cells. It counts as cell-based.

In the case of “5′-CTGTCCCGCAGCGTGGGCATTATGG-3′ (all phosphorodiamidate morpholino (PMO)) [antisense morpholino oligomers]”, the “phenotype of injected embryos compared with has mutation” value in series [1] is on record as “phenocopy the mutation entirely”.
In the case of `CCCCCc1ccc(-c2ccc(/C=C/C(N)=O)cc2)nc1` [concentramide], the “irregular epithelial cell shapes and gaps between cells in the kidney” value in [2] was “did not observe these defects”. Also, in series [3] (18-somite embryos), the “distance between Pax2.1-expressing cells in the eyes and at the midbrain/hindbrain boundary” value is “reduced”. Moreover, the “distance between the anterior edge of the cmlc2-expressing field and the anterior extreme of the embryo” value in series [3] (18-somite stage, n=12, wild-type 3.1+/−0.2) was 2.2+/−0.3 arbitrary units. Also, in [4], the “defects in cell polarity, RPE continuity, or lamination of the retina” value is “do not exhibit defects”. Besides, the “fusion of posterior ends of the heart field” value in series [5] is “failure to merge the posterior ends”. For the same molecule, the “phenotype at 6 μM compared with 6 nM” value in series [6] (6 μM versus 6 nM) is listed as “virtually the same phenotype”. For the same molecule, the brain development result in series [6] (concentramide-treated embryos) is on record as “develop abnormally”. In addition, the “heart phenotype of exposed embryos” value in [6] (embryos exposed to concentramide) is on record as “compact hearts that do not sustain a circulation”. For the same molecule, in [6] (general cytotoxicity), the cell death result is listed as “no increase in cell death is apparent” and the “development relative to untreated siblings” value is listed as “not delayed”. Moreover, in [6] (more precise staging, approximately 15 hpf), the “stage before which concentramide must be present to induce the concentric chamber morphology” value was below 14 somite stage. The “potency on specific molecular target versus other proteins affecting visible developmental processes” value in [6] (same phenotype at 6 μM and 6 nM) is recorded as “at least 1,000 times”. The “heart morphology at 24 hpf” value in [6] (treated after 17 hpf) was “wild-type heart morphology”. Further, the “heart morphology at 24 hpf” value in [6] (treated at any time prior to 14 hpf) is “concentric chamber morphology”. In addition, in series [6] (treated between 9 and 14 hpf, concentric heart chamber phenotype preserved), the “brain and heart phenotype with timed treatment” value is listed as “eliminates this brain defect”. For the same molecule, in series [7], the Par2 localization result is listed as “retain proper localization of Par2 to the posterior pole”, the “asymmetry of first cell division” value was “normally asymmetric first cell division”, the completion of development entry is “fail to complete development” and the cytokinesis result is recorded as “cytolinetic defects”. Also, the “effect on rate of proliferation of yeast” value in [8] is given as “no effect”. For the same molecule, in series [9], the “effect on bromodeoxyuridine incorporation” value is given as “no effect”.
